IC50, viability and Status data for twelve compounds are collected here from PMC7866225, “Microwave-Assisted Synthesis of (Piperidin-1-yl)quinolin-3-yl)methylene)hydrazinecarbothioamides as Potent Inhibitors of Cholinesterases: A Biochemical and In Silico Approach” (Molecules, 2021).

Data set [1] addresses Butyrylcholinesterase (BChE) (Equus caballus, UniProt P81908). Put plainly: biochemical. The conditions noted are these: Ellman's method, triplicate; read-out: Butyrylcholinesterse (BChE) IC50 ± SEM. On the procedure: (§1) Modified Ellman’s method was adopted to investigate the inhibitory potential of newly synthesized compounds against cholinesterase enzymes. The assay protocol involved 96-well plates (100 μL per well). Each well contained 20 μL of assay buffer solution, 10 μL of test sample, and 10 μL of 0.5 U/mg of AChE (for AChE inhibition assay) or 10 μL of 3.4 U/mg of BChE (for BChE inhibition assay). This mixture was incubated at 25 °C for 10 min followed by the addition of substrate (10 μL). For AChE inhibition assay, acetylthiocholine iodide (ATCI, 1 mM) while for BChE assay, butyrylthiocholine chloride (BTCCl, 1 mM), was added. This mixture was incubated for 15 min at 37 °C. Ellman reagent (5,5′-dithio-bis(2-nitrobenzoic acid), DTNB, 3 mM) was added. […] Blank assay was also performed. All the analyses were performed in triplicate. IC50 values were also calculated for the synthesized compounds in GraphPad prism 5.0. using nonlinear regression method.

For data set [2], the target named is Acetylcholinesterase (AChE) (Electrophorus electricus, UniProt O42275). Put plainly: biochemical. To be noted: Ellman's method, triplicate; read-out: Acetylcholinesterase (AChE) IC50 ± SEM. How it is done: as §1
Data set [3] is described as follows: In vitro cytotoxicity, MTT assay. The format is cell-based. The conditions noted are these: human, HepG2 cells, 24 h, control = 100, read-out: Cell Viability; for viability at 24 h, 50 μg/mL: HepG2, 50 μg/mL; for viability at 24 h, 100 μg/mL: HepG2, 100 μg/mL; for viability at 24 h, 200 μg/mL: HepG2, 200 μg/mL; for viability at 24 h, 500 μg/mL: HepG2, 500 μg/mL; for viability at 24 h, 1000 μg/mL: HepG2, 1000 μg/mL. On the procedure: (§2) HepG2 cell line was obtained from the cell culture laboratory established in The University of Lahore. These cell lines were preserved in cryo vials present in liquid nitrogen. Cryo vials were revived for further processing.
(§3) The cryo vials obtained from liquid nitrogen cylinder were thawed. Then HepG2 cells were cultured in the culturing flask in which DMEM-HG along with 10% fetal bovine serum (FBS), supplemented with […] (Sigma) and 100 U/mL streptomycin (Sigma) were added. Cultures were maintained in a humidified incubator supplied with 5% CO2 at 37 °C. Experiments were performed in triplicates. When cultured HepG2 cells achieved 70–80% confluence their subculturing was conducted. For splitting, the cells attached to the walls of the culturing flask were washed with 1× phosphate buffer saline (PBS) and incubated with 0.05% trypsin-EDTA until cells detached from the surface of culturing flask. The detachment of the cells was confirmed by observing the flask under the inverted microscope. A few drops of FBS were added to the flask and mixed well by stirring. The mixture was centrifuged at 2000 rpm for 5 min. After centrifugation the supernatant was removed, and pellet was resuspended. HepG2 cells were cultured onto 96-well plates for measurement of cell viability. Treatment was given for both compounds at a concentration of 0–1000 µg/mL for 24 h.
(§4) After 4 h formazan crystals were solubilized with 10% sodium dodecylsulphate (SDS) (Invitrogen Inc.) and absorbance was taken at 570 nm. Percentage viability was calculated according to the following formula:% Viable cells = ((abs sample − abs blank) / (abs control − abs blank)) × 100 (1) where abs stands for absorbance.
In general terms: Tetrazolium assays rely on reduction of a dye to a coloured formazan, in cell work by metabolically active cells.

For another data set, the system named is HepG2 cells. Put plainly: In vitro cytotoxicity, MTT assay. The format is cell-based. To be noted: HepG2, MTT, 0–1000 µg/mL, 24 h. On the procedure: as §2, §3, §4

Values joined by “and” are separate entries in the source; they are usually repeats but may differ in a detail not shown here. Equal entries are not always repeated. Some results are limits rather than exact numbers.

Chain of Butyrylcholinesterase (BChE) (P81908 whole entry): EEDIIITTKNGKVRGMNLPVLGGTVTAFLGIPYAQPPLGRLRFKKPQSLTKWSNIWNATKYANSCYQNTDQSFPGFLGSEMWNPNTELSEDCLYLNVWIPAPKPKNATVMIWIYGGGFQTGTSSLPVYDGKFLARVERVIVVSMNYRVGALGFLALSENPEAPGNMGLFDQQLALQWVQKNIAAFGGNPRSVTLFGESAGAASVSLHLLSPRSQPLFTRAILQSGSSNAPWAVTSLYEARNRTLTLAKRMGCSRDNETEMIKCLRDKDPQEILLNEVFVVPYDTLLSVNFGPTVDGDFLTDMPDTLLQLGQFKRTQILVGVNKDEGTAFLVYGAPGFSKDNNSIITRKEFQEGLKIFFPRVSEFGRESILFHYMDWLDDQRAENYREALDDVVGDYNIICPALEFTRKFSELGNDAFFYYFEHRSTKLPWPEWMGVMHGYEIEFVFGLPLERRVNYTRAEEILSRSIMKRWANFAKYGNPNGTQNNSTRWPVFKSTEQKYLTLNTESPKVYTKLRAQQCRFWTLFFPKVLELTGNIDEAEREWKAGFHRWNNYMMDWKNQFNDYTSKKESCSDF
Chain of Acetylcholinesterase (AChE) (O42275 24-633): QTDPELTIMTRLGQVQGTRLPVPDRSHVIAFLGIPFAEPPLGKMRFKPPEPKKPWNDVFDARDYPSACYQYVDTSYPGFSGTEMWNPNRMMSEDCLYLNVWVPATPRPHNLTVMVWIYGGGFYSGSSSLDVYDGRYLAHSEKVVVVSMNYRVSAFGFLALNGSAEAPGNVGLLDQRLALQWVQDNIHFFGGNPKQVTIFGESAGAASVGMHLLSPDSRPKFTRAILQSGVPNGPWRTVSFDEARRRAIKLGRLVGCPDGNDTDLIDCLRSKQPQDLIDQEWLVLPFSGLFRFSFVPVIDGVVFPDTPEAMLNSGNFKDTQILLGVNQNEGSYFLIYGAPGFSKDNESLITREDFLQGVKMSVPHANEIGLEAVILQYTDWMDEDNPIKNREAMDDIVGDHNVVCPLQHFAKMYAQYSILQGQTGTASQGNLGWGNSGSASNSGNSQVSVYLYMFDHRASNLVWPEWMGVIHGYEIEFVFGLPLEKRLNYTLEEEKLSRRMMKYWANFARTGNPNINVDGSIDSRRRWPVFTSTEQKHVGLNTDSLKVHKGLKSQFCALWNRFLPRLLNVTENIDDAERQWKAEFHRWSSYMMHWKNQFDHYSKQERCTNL

For `Cc1ccc2nc(N3CCCCC3)c(C=NNC(=S)NCCN3CCOCC3)cc2c1` [Compound 5m, 2-((6-Methyl-2-(piperidin-1-yl)quinolin-3-yl)methylene)-N-(2-morpholinoethyl)hydrazine carbothioamide], the IC50 in data set [1] is 59.35 ± 0.13 µM. Besides, the half-inhibitory concentration (IC50) in data set [2] was 62.3 ± 0.68 µM. In addition, in data set [3], the viability at 24 h, 50 μg/mL is 94%; the viability at 24 h, 100 μg/mL amounted to 102%; the viability at 24 h, 200 μg/mL turned out to be 109%; the viability at 24 h, 500 μg/mL came out at 107%. Also, the viability at 24 h, 1000 μg/mL in data set [3] is 115%. Moreover, in the data set with HepG2 cells, the Status result was “Non-cytotoxic”.

`Cc1cccc2cc(C=NNC(N)=S)c(N3CCCCC3)nc12` [Compound 6a, 2-((8-Methyl-2-(piperidin-1-yl)quinolin-3-yl)methylene)hydrazinecarbothioamide]: the half-maximal inhibitory concentration (IC50) in data set [1] stood at 60.02 ± 0.04 µM. Moreover, the IC50 in data set [2] was 36.25 ± 0.36 µM. In data set [3], the viability at 24 h, 50 μg/mL worked out at 82.5%; the viability at 24 h, 100 μg/mL is 86.3%; the viability at 24 h, 200 μg/mL worked out at 80.6%; the viability at 24 h, 500 μg/mL came out at 83.3%. Moreover, in data set [3], the viability at 24 h, 1000 μg/mL stood at 77.9%. Besides, the Status entry in the data set with HepG2 cells is on record as “Cytotoxic”.

Turning to `Cc1cccc2cc(C=NNC(=S)Nc3ccccc3)c(N3CCCCC3)nc12` [Compound 6b, 2-((8-Methyl-2-(piperidin-1-yl)quinolin-3-yl)methylene)-N-phenylhydrazinecarbothioamide], in data set [1], the concentration for half-maximal inhibition (IC50) amounted to 28.8 ± 0.63 µM. Also, the 50% inhibitory concentration (IC50) in data set [2] came to 25.9 ± 0.45 µM. In data set [3], the viability at 24 h, 50 μg/mL is 89.9%; the viability at 24 h, 100 μg/mL turned out to be 95.7%; the viability at 24 h, 200 μg/mL came out at 92.8%; the viability at 24 h, 500 μg/mL was found to be 112%. Also, the viability at 24 h, 1000 μg/mL in data set [3] came to 69.2%. Further, in the data set with HepG2 cells, the Status entry was “Cytotoxic”.

As for `Cc1ccc(NC(=S)NN=Cc2cc3cccc(C)c3nc2N2CCCCC2)c(C)c1` [Compound 6c, N-(2,4-Dimethylphenyl)-2-((8-methyl-2-(piperidin-1-yl)quinolin-3-yl)methylene)hydrazine carbothioamide], the IC50 in data set [1] amounted to 24.59 ± 0.09 µM. For the same compound, in data set [2], the half-maximal inhibitory concentration (IC50) worked out at 39.12 ± 0.27 µM. Besides, in data set [3], the viability at 24 h, 50 μg/mL is 87.5%; the viability at 24 h, 100 μg/mL is 116%; the viability at 24 h, 200 μg/mL stood at 154%; the viability at 24 h, 500 μg/mL was found to be 187%. Further, the viability at 24 h, 1000 μg/mL in data set [3] stood at 233%. Besides, the Status entry in the data set with HepG2 cells is reported as “Proliferative”.

On to `Cc1cccc(C)c1NC(=S)NN=Cc1cc2cccc(C)c2nc1N1CCCCC1` [Compound 6d, N-(2,6-Dimethylphenyl)-2-((8-methyl-2-(piperidin-1-yl)quinolin-3-yl)methylene)hydrazine carbothioamide], for which the IC50 in data set [1] is < 20 µM and 17.9 µM. For the same compound, the concentration for half-maximal inhibition (IC50) in data set [2] was < 20 µM and 12.9 µM. Moreover, in data set [3], the viability at 24 h, 50 μg/mL was found to be 75%; the viability at 24 h, 100 μg/mL worked out at 93.9%; the viability at 24 h, 200 μg/mL was 91.3%; the viability at 24 h, 500 μg/mL was 129%. In data set [3], the viability at 24 h, 1000 μg/mL came to 173%. Further, the Status result in the data set on HepG2 cells was “Proliferative”.

As for `Cc1cccc2cc(C=NNC(=S)Nc3ccccc3Cl)c(N3CCCCC3)nc12` [Compound 6e, N-(2-Chlorophenyl)-2-((8-methyl-2-(piperidin-1-yl)quinolin-3-yl)methylene)hydrazine carbothioamide], the IC50 in data set [1] was determined as 37.1 ± 0.59 µM. For the same compound, in data set [2], the half-maximal inhibitory concentration (IC50) stood at 32.11 ± 0.15 µM. In addition, in data set [3], the viability at 24 h, 50 μg/mL is 102%; the viability at 24 h, 100 μg/mL came to 112%; the viability at 24 h, 200 μg/mL was 167%; the viability at 24 h, 500 μg/mL amounted to 180%. Besides, the viability at 24 h, 1000 μg/mL in data set [3] is 212%. Besides, in the data set with HepG2 cells, the Status result is recorded as “Proliferative”.

For the compound `Cc1cccc2cc(C=NNC(=S)Nc3cccc(Cl)c3)c(N3CCCCC3)nc12` [Compound 6f, N-(3-Chlorophenyl)-2-((8-methyl-2-(piperidin-1-yl)quinolin-3-yl)methylene)hydrazine carbothioamide], the IC50 in data set [1] was < 20 µM and 11.6 µM. The IC50 in data set [2] was < 20 µM and 9.68 µM. Also, in data set [3], the viability at 24 h, 50 μg/mL stood at 110%; the viability at 24 h, 100 μg/mL was 110%; the viability at 24 h, 200 μg/mL is 109%; the viability at 24 h, 500 μg/mL came out at 139%. Moreover, in data set [3], the viability at 24 h, 1000 μg/mL was 189%. In the data set on HepG2 cells, the Status entry is given as “Proliferative”.

Regarding `Cc1cccc2cc(C=NNC(=S)Nc3ccc(Cl)cc3)c(N3CCCCC3)nc12` [Compound 6g, N-(4-Chlorophenyl)-2-((8-methyl-2-(piperidin-1-yl)quinolin-3-yl)methylene)hydrazine carbothioamide], in data set [1], the IC50 was < 20 µM and 18.6 µM. Besides, in data set [2], the IC50 was < 20 µM and 13.8 µM. In addition, in data set [3], the viability at 24 h, 50 μg/mL worked out at 113%; the viability at 24 h, 100 μg/mL was 106%; the viability at 24 h, 200 μg/mL was 111%; the viability at 24 h, 500 μg/mL turned out to be 150%. Further, the viability at 24 h, 1000 μg/mL in data set [3] is 214%. Moreover, the Status entry in the data set with HepG2 cells was “Proliferative”.

Turning to `Cc1cccc2cc(C=NNC(=S)Nc3ccccc3F)c(N3CCCCC3)nc12` [Compound 6h, N-(2-Fluorophenyl)-2-((8-methyl-2-(piperidin-1-yl)quinolin-3-yl)methylene)hydrazine carbothioamide], the IC50 in data set [1] came out at 45.12 ± 0.19 µM. Also, the concentration for half-maximal inhibition (IC50) in data set [2] worked out at 40.23 ± 0.25 µM. Also, in data set [3], the viability at 24 h, 50 μg/mL stood at 100%; the viability at 24 h, 100 μg/mL turned out to be 110%; the viability at 24 h, 200 μg/mL stood at 126%; the viability at 24 h, 500 μg/mL turned out to be 151%. In data set [3], the viability at 24 h, 1000 μg/mL is 202%. Moreover, the Status result with HepG2 cells is “Proliferative”.

Turning to `Cc1cccc2cc(C=NNC(=S)Nc3cccc(F)c3)c(N3CCCCC3)nc12` [Compound 6i, N-(3-Fluorophenyl)-2-((8-methyl-2-(piperidin-1-yl)quinolin-3-yl)methylene)hydrazine carbothioamide], the IC50 in data set [1] was found to be 51.11 ± 0.28 µM. Also, the IC50 in data set [2] is 15.8 ± 1.3 µM. Moreover, in data set [3], the viability at 24 h, 50 μg/mL was 95.5%; the viability at 24 h, 100 μg/mL stood at 102%; the viability at 24 h, 200 μg/mL turned out to be 131%; the viability at 24 h, 500 μg/mL amounted to 112%. Also, the viability at 24 h, 1000 μg/mL in data set [3] is 186%. The Status entry with HepG2 cells is “Proliferative”.

As to `Cc1cccc2cc(C=NNC(=S)Nc3ccc(F)cc3)c(N3CCCCC3)nc12` [Compound 6j, N-(4-Fluorophenyl)-2-((8-methyl-2-(piperidin-1-yl)quinolin-3-yl)methylene)hydrazine carbothioamide], the IC50 in data set [1] stood at 51 ± 0.52 µM. The IC50 in data set [2] came out at 56.66 ± 0.41 µM. For the same compound, in data set [3], the viability at 24 h, 50 μg/mL worked out at 103%; the viability at 24 h, 100 μg/mL was 93.7%; the viability at 24 h, 200 μg/mL was 94.8%; the viability at 24 h, 500 μg/mL was found to be 108%. Further, the viability at 24 h, 1000 μg/mL in data set [3] stood at 114%. For the same compound, in the data set with HepG2 cells, the Status entry is listed as “Non-cytotoxic”.

For the compound `CCc1ccc(NC(=S)NN=Cc2cc3cccc(C)c3nc2N2CCCCC2)cc1` [Compound 6k, N-(4-Ethylphenyl)-2-((8-methyl-2-(piperidin-1-yl)quinolin-3-yl)methylene)hydrazine carbothioamide], the IC50 in data set [1] amounted to 32.01 ± 0.31 µM. The half-maximal inhibitory concentration (IC50) in data set [2] is 39.9 ± 0.85 µM. Further, in data set [3], the viability at 24 h, 50 μg/mL was 103%; the viability at 24 h, 100 μg/mL turned out to be 105%; the viability at 24 h, 200 μg/mL turned out to be 107%; the viability at 24 h, 500 μg/mL is 138%. The viability at 24 h, 1000 μg/mL in data set [3] is 157%. For the same compound, the Status result in the data set on HepG2 cells is on record as “Proliferative”.

The IC50 is the concentration that inhibits the measured activity by half. One may read the viability as a read-out of living cells in per cent, often relative to untreated cells.
